Measured values reported in US10596169B2, “Cancer treatment with combination of plinabulin and taxane” (BeyondSpring Inc., priority 2013, dated 2020).

Experiment: Example 3: clinical study, safety (docetaxel dose reduction, neutropenia rate, G-CSF use), Arm DN vs Arm D
Assay type: in vivo, human (NSCLC patients)
Description: The investor applied the optimum plinabulin and docetaxel combination treatment schedule derived from MV522 animal studies in NSCLC patients. Patients received therapy on Day 1 and Day 8 in 3-week cycles. Therapy on Day 1 consisted of 75 mg/m^2 docetaxel administered via intravenous infusion (IV) over 1 hour, followed 2 hours later (from the time the docetaxel infusion begins) by 30 mg/m^2 plinabulin administered via intravenous infusion (IV) over 30 minutes. Therapy on Day 8 consisted of 20 mg/m^2 or 30 mg/m^2 plinabulin administered via intravenous infusion (IV) over 30 minutes.
This was an open-label study in patients with advanced NSCLC that had progressed after treatment with at least 1 chemotherapy regimen. Patients were randomized to receive either docetaxel plus plinabulin (DN) or docetaxel alone (75 mg/m^2) (D). 2 dosing cohorts were investigated: • 1) 30 mg/m^2 dosing cohort: Approximately 110 patients were to be randomized (1:1) to receive either docetaxel plus plinabulin at 30 mg/m^2 (DN 30 mg/m^2 arm) or docetaxel alone (D arm); • 2) 20 mg/m^2 dosing cohort: Approximately 57 patients were to be randomized (2:1) to receive either docetaxel plus plinabulin at 20 mg/m^2 (DN 20 mg/m^2 arm) or docetaxel (D arm) alone.
Patients received therapy on Day 1 and Day 8 in 3-week cycles.
Therapy on Day 1 consisted of 75 mg/m^2 docetaxel administered via intravenous infusion (IV) over 1 hour, followed 2 hours later (from the time the docetaxel infusion began) by placebo (Arm D) or 30 mg/m^2 or 20 mg/m^2 plinabulin (Arm DN) DN administered via intravenous infusion (IV) over 30 minutes. Oral dexamethasone (16 mg) was given the day prior to, the day of and the day following docetaxel infusion (Day 1). Therapy on Day 8 consisted of placebo (Arm D) or 30 mg/m^2 or 20 mg/m^2 plinabulin (Arm DN) administered via intravenous infusion (IV) over 30 minutes.
In patients experiencing drug related Grade >2 treatment emergent adverse events (except alopecia, anorexia, and fatigue) according to the CTCAE (v3.0) treatment may be delayed until the adverse event has recovered to <Grade 1.
The initial dose of plinabulin was 30 mg/m^2 or 20 mg/m^2. Dose adjustments depended on observed adverse events. Volume of administration varied based on assigned dose and patient body surface area. The clinical formulation were supplied as a concentrated solution in 40% Solutol® HS-15/60% propylene glycol in amber vials containing 80 mg of drug in 20 mL (4 mg/mL) and were stored at room temperature. Each vial was designated for single use. The correct volume of drug (at a concentration of 4 mg/mL in the vial) was diluted in dextrose 5% in water (D5W) at a dilution of 1:20 and administered IV peripherally or centrally. Infusion time may be increased as clinically indicated at the direction of the Sponsor. Plinabulin and placebo must be protected from light at all times including storage, dilution and administration. Plinabulin and placebo should be administered within 6 hours of dilution.
The initial dose of docetaxel was 75 mg/m^2. Dose adjustments depended on observed adverse events.
Comparisons were made of efficacy endpoints between Arm D and Arm DN. The primary efficacy endpoint is overall survival. Secondary endpoints include response rate, duration of response, quality of life, neutropenia rate and G-CSF usage. […]
All patients were evaluated for safety analysis if they received at least one dose of study drug. […]

## CC(=O)O[C@@]12CO[C@@H]1C[C@H](O)[C@@]1(C)C(=O)[C@H](O)C3=C(C)[C@@H](OC(=O)[C@H](O)[C@@H](NC(=O)OC(C)(C)C)c4ccccc4)C[C@@](O)([C@@H](OC(=O)c4ccccc4)[C@H]21)C3(C)C [Docetaxel, docetaxel]
20 mg/m^2 plinabulin cohort and companion D arm
  Patients requiring docetaxel dose reductions: 22.2%
30 mg/m^2 plinabulin cohort and matched docetaxel alone arm
  Patients with docetaxel dose decrease from initial 75 mg/m^2: 18.2%
DN 20 mg/m^2 arm vs companion D arm
  Incidence of neutropenia: 22.2%
DN 30 mg/m^2 arm vs companion D arm
  Incidence of neutropenia: 36.4%
Pooled D arm (n=73)
  Incidence of ≥Grade 3 neutropenia: 27.4%
